From patent US9955691B2, “Macrocyclic picolinamides as fungicides” (DOW AGROSCIENCES LLC, priority 2014, dated 2018)
Like-named read-outs stand apart in the source and are kept apart here.

What was measured:
[1] = system: Mycosphaerella graminicola; Anamorph: Septoria tritici; test: Fungicidal activity: Leaf Blotch of Wheat (SEPTTR); type: in vivo; settings: Zymoseptoria tritici, wheat leaf blotch; for pest or weed control at 121.5 g/ha: Low Volume (121.5 g/H); for pest or weed control at 100 µg/mL: High Volume (100 ppm)
In short: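 Compounds were dissolved in acetone, diluted with nine volumes of water containing 110 ppm Triton X-100, and sprayed to run-off on first-leaf Yuma wheat seedlings inoculated with Septoria tritici spores before or after treatment. Plants were held in a dew chamber, then a 20° C. greenhouse. Percent control was derived from disease severity relative to untreated plants.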

Puccinia triticina = test: Fungicidal activity: Wheat Brown Rust (PUCCRT); type: in vivo; settings: for pest or weed control at 121.5 g/ha: Low Volume (121.5 g/H); for pest or weed control at 100 µg/mL: High Volume (100 ppm)
In short: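 Wheat seedlings (Yuma, first leaf) sprayed to run-off with compound in acetone/water with Triton X-100, inoculated with Puccinia triticina before or after treatment. Held overnight in dark dew at 22° C, then greenhouse at 24° C; percent disease control from severity versus untreated plants.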

[2] = 24 h, 1 Day Protectant, read-out: SEPTTR 1 DP disease control
[3] = 72 h, 3 Day Curative, read-out: SEPTTR 3 DC disease control
[4] = 24 h, 1 Day Protectant, read-out: PUCCRT 1 DP disease control
[5] = 72 h, 3 Day Curative, read-out: PUCCRT 3 DC disease control

| SMILES | melting point [°C] | pest or weed control at 121.5 g/ha [1, 2] [%] | pest or weed control at 121.5 g/ha [1, 3] [%] | pest or weed control at 121.5 g/ha (Puccinia triticina; [4]) [%] | pest or weed control at 121.5 g/ha (Puccinia triticina; [5]) [%] | pest or weed control at 100 µg/mL [1, 2] [%] | pest or weed control at 100 µg/mL [1, 3] [%] | pest or weed control at 100 µg/mL (Puccinia triticina; [4]) [%] | pest or weed control at 100 µg/mL (Puccinia triticina; [5]) [%] |
| --- | --- | --- | --- | --- | --- | --- | --- | --- | --- |
| COc1cccc(C[C@H]2COC[C@H](NC(=O)c3nccc(OC)c3OCOC(C)=O)C(=O)O[C@@H](C)[C@@H]2Cc2cccc(OC)c2)c1 [compound 17] | 51 to 55 | > 70 | > 70 | > 70 | < 70 | – | – | – | – |
| COc1ccnc(C(=O)N[C@H]2COC[C@H](Cc3ccc(Cl)cc3)[C@@H](C3CCCC3)[C@H](C)OC2=O)c1OCOC(=O)C(C)C [compound 89] | 54 to 58 | > 70 | > 70 | > 70 | < 70 | – | – | – | – |
| COc1ccnc(C(=O)N[C@H]2COC[C@H](Cc3ccc(Cl)cc3)[C@@H](C3CCCC3)[C@H](C)OC2=O)c1OC(=O)C(C)C [compound 87] | 73 to 77 | > 70 | > 70 | > 70 | < 70 | – | – | – | – |
| CCC[C@H]1COC[C@H](NC(=O)c2nccc(OC)c2OCOC(C)=O)C(=O)O[C@@H](C)[C@@H]1Cc1ccc(F)cc1 [compound 108] | 38 to 43 | > 70 | > 70 | > 70 | > 70 | – | – | – | – |
| COCCC(=O)Oc1c(OC)ccnc1C(=O)N[C@H]1COC[C@H](Cc2ccc(Cl)cc2)[C@@H](C2CCCC2)[C@H](C)OC1=O [compound 106, 2-(((3S,7R,8R,9S)-7-(4-chlorobenzyl)-8-cyclopentyl-9-methyl-2-oxo-1,5-dioxonan-3-yl)carbamoyl)-4-methoxypyridin-3-yl 3-methoxypropanoate] | 55 to 60 | > 70 | > 70 | > 70 | > 70 | – | – | – | – |
| COc1ccnc(C(=O)N[C@H]2COC[C@H](Cc3ccccc3)[C@@H](c3ccccc3)[C@H](C)OC2=O)c1OC(C)=O [compound 54] | 99 to 103 | > 70 | > 70 | > 70 | > 70 | – | – | – | – |
| COc1ccnc(C(=O)N[C@H]2COC[C@H](CCc3ccccc3)[C@@H](CCc3ccccc3)[C@H](C)OC2=O)c1OCOC(C)=O [compound 4] | 42 to 47 | > 70 | > 70 | > 70 | < 70 | > 70 | > 70 | > 70 | > 70 |
| CCOCC(=O)OCOc1c(OC)ccnc1C(=O)N[C@H]1COC[C@H](Cc2ccc(Cl)cc2)[C@@H](C2CCCC2)[C@H](C)OC1=O [compound 90, ((2-(((3S,7R,8R,9S)-7-(4-chlorobenzyl)-8-cyclopentyl-9-methyl-2-oxo-1,5-dioxonan-3-yl)carbamoyl)-4-methoxypyridin-3-yl)oxy)methyl 2-ethoxyacetate] | 52 to 55 | > 70 | > 70 | > 70 | < 70 | – | – | – | – |

Second part, led by results:

| melting point [°C] | SMILES | pest or weed control at 121.5 g/ha [1, 2] [%] | pest or weed control at 121.5 g/ha [1, 3] [%] | pest or weed control at 121.5 g/ha (Puccinia triticina; [4]) [%] | pest or weed control at 121.5 g/ha (Puccinia triticina; [5]) [%] | pest or weed control at 100 µg/mL [1, 2] [%] | pest or weed control at 100 µg/mL [1, 3] [%] | pest or weed control at 100 µg/mL (Puccinia triticina; [4]) [%] | pest or weed control at 100 µg/mL (Puccinia triticina; [5]) [%] |
| --- | --- | --- | --- | --- | --- | --- | --- | --- | --- |
| 69 to 75 | COc1ccnc(C(=O)N[C@H]2COC[C@H](CC3CCCCC3)[C@@H](CC3CCCCC3)[C@H](C)OC2=O)c1O [compound 119] | – | – | – | – | > 70 | < 70 | > 70 | > 70 |
| 80 to 84 | COc1ccnc(C(=O)N[C@H]2COC[C@H](Cc3ccc(Cl)cc3)[C@@H](C3CCCC3)[C@H](C)OC2=O)c1O [compound 149] | – | – | – | – | > 70 | > 70 | > 70 | > 70 |
| 68 to 73 | COc1ccnc(C(=O)N[C@H]2COC[C@H](Cc3ccccc3)[C@@H](COc3ccccc3)[C@H](C)OC2=O)c1O [compound 151] | – | – | – | – | > 70 | > 70 | > 70 | < 70 |
| 62 to 65 | COc1cccc(C[C@H]2COC[C@H](NC(=O)c3nccc(OC)c3O)C(=O)O[C@@H](C)[C@@H]2Cc2cccc(OC)c2)c1 [compound 124] | – | – | – | – | < 70 | < 70 | > 70 | < 70 |
